Reference: patent US6054435A, “6-O-substituted macrolides having antibacterial activity” (priority 1999, dated 2000)
Values after ≈ are worked out from the molar mass of the structure shown.

Columns and labels:
Experiment in all cases: in vitro antibacterial activity (MIC), agar dilution
Type in all cases: cell-based
Candida albicans CCH 442 = conditions: organism code TT; BHI agar, 35-37° C., 20 to 24 hours; unit assumed
Procedure, shortened: (§1)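 Agar dilution in BHI agar, twelve successive compound dilutions. Inoculum 1:100, or 1:10 for slow-growing strains (e.g. Streptococcus), replicator-spotted. Read by eye; MIC = lowest concentration with no growth, slight haze or sparsely isolated colonies relative to growth control.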

[1] = system: Enterococcus faecium ATCC 8043; conditions: organism code II; BHI agar, 35-37° C., 20 to 24 hours; unit assumed
Procedure, shortened: as §1

Escherichia coli DC-2 = conditions: organism code SS; BHI agar, 35-37° C., 20 to 24 hours; unit assumed
Procedure, shortened: as §1

Escherichia coli JUHL = conditions: organism code QQ; BHI agar, 35-37° C., 20 to 24 hours; unit assumed
Procedure, shortened: as §1

Escherichia coli SS = conditions: organism code RR; BHI agar, 35-37° C., 20 to 24 hours; unit assumed
Procedure, shortened: as §1

[2] = system: Haemophilis Influenzae DILL AMP R; conditions: organism code WW; BHI agar, 35-37° C., 20 to 24 hours; unit assumed
Procedure, shortened: as §1

[3] = system: Micrococcus luteus ATCC 4698; conditions: organism code PP; BHI agar, 35-37° C., 20 to 24 hours; unit assumed
Procedure, shortened: (§2)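 Test compound serially diluted in Brain Heart Infusion agar across twelve plates; inocula of 1:100 dilution (1:10 for slow growers such as Streptococcus) applied by Steers replicator. MIC taken visually as lowest concentration giving no growth, slight haze or sparse isolated colonies versus drug-free growth control.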

[4] = system: Micrococcus luteus ATCC 9341; conditions: organism code OO; BHI agar, 35-37° C., 20 to 24 hours; unit assumed
Procedure, shortened: as §2

[5] = system: Mycobacterium smegmatis ATCC 114; conditions: organism code UU; BHI agar, 35-37° C., 20 to 24 hours; unit assumed
Procedure, shortened: as §1

[6] = system: Nocardia Asteroides ATCC9970; conditions: organism code VV; BHI agar, 35-37° C., 20 to 24 hours; unit assumed
Procedure, shortened: as §1

[7] = system: Staphylococcus aureus 1775; conditions: organism code GG; BHI agar, 35-37° C., 20 to 24 hours; unit assumed
Procedure, shortened: as §1

[8] = system: Staphylococcus aureus A-5278; conditions: organism code CC; BHI agar, 35-37° C., 20 to 24 hours; unit assumed
Procedure, shortened: as §1

[9] = system: Staphylococcus aureus A5177; conditions: organism code BB; BHI agar, 35-37° C., 20 to 24 hours; unit assumed
Procedure, shortened: as §1

[10] = system: Staphylococcus aureus ATCC 6538P; conditions: organism code AA; BHI agar, 35-37° C., 20 to 24 hours; unit assumed
Procedure, shortened: as §1

[11] = system: Staphylococcus aureus CMX 553; conditions: organism code FF; BHI agar, 35-37° C., 20 to 24 hours; unit assumed
Procedure, shortened: as §1

[12] = system: Staphylococcus aureus CMX 642A; conditions: organism code DD; BHI agar, 35-37° C., 20 to 24 hours; unit assumed
Procedure, shortened: as §1

[13] = system: Staphylococcus aureus NCTC10649M; conditions: organism code EE; BHI agar, 35-37° C., 20 to 24 hours; unit assumed
Procedure, shortened: as §1

[14] = system: Staphylococcus epidermidis 3519; conditions: organism code HH; BHI agar, 35-37° C., 20 to 24 hours; unit assumed
Procedure, shortened: as §1

[15] = system: Streptococcus Pneumonia 5649; conditions: organism code ZZA; BHI agar, 35-37° C., 20 to 24 hours; unit assumed
Procedure, shortened: as §1

[16] = system: Streptococcus Pneumonia 5979; conditions: organism code ZZ; BHI agar, 35-37° C., 20 to 24 hours; unit assumed
Procedure, shortened: as §1

[17] = system: Streptococcus Pneumonia ATCC6303; conditions: organism code XX; BHI agar, 35-37° C., 20 to 24 hours; unit assumed
Procedure, shortened: as §1

[18] = system: Streptococcus Pneumonia GYR 1171; conditions: organism code YY; BHI agar, 35-37° C., 20 to 24 hours; unit assumed
Procedure, shortened: as §1

[19] = system: Streptococcus agalactiae CMX 508; conditions: organism code KK; BHI agar, 35-37° C., 20 to 24 hours; unit assumed
Procedure, shortened: as §1

[20] = system: Streptococcus bovis A-5169; conditions: organism code JJ; BHI agar, 35-37° C., 20 to 24 hours; unit assumed
Procedure, shortened: as §1

[21] = system: Streptococcus pyogenes 930; conditions: organism code MM; BHI agar, 35-37° C., 20 to 24 hours; unit assumed
Procedure, shortened: as §1

[22] = system: Streptococcus pyogenes EES61; conditions: organism code LL; BHI agar, 35-37° C., 20 to 24 hours; unit assumed
Procedure, shortened: as §1

[23] = system: Streptococcus pyogenes PIU 2548; conditions: organism code NN; BHI agar, 35-37° C., 20 to 24 hours; unit assumed
Procedure, shortened: as §1

Compound	MIC (Candida albicans CCH 442)	MIC [1]	MIC (Escherichia coli DC-2)	MIC (Escherichia coli JUHL)	MIC (Escherichia coli SS)	MIC [2]	MIC [3]	MIC [4]	MIC [5]	MIC [6]	MIC [7]	MIC [8]	MIC [9]	MIC [10]	MIC [11]	MIC [12]	MIC [13]	MIC [14]	MIC [15]	MIC [16]	other results
CC[C@H]1OC(=O)[C@H](C)C(=O)[C@H](C)[C@@H](O[C@@H]2O[C@H](C)C[C@H](N(C)C)[C@H]2O)[C@](C)(OC/C=C/c2cnc(-c3cnccn3)s2)C[C@@H](C)C(=O)[C@H](C)[C@H]2NC(=O)O[C@@]21C [Example 58]	> 100 µg/mL	0.02 µg/mL (≈ 0.025 µM)	100 µg/mL (≈ 125 µM)	50 µg/mL (≈ 62.5 µM)	0.2 µg/mL (≈ 0.25 µM)	4 µg/mL (≈ 5 µM)	0.05 µg/mL (≈ 0.0625 µM)	0.01 µg/mL (≈ 0.0125 µM)	1.56 µg/mL (≈ 1.95 µM)	0.02 µg/mL (≈ 0.025 µM)	> 100 µg/mL	> 100 µg/mL	0.05 µg/mL (≈ 0.0625 µM)	0.1 µg/mL (≈ 0.125 µM)	0.05 µg/mL (≈ 0.0625 µM)	0.1 µg/mL (≈ 0.125 µM)	0.1 µg/mL (≈ 0.125 µM)	0.1 µg/mL (≈ 0.125 µM)	0.25 µg/mL (≈ 0.313 µM)	4 µg/mL (≈ 5 µM)	MIC [17]: ≤ 0.004 µg/mL; MIC [18]: ≤ 0.004 µg/mL; MIC [19]: 0.02 µg/mL (≈ 0.025 µM); MIC [20]: 0.01 µg/mL (≈ 0.0125 µM); MIC [21]: 3.1 µg/mL (≈ 3.88 µM); MIC [22]: 0.02 µg/mL (≈ 0.025 µM); MIC [23]: 0.1 µg/mL (≈ 0.125 µM)
CC[C@H]1OC(=O)[C@H](C)C(=O)[C@H](C)[C@@H](O[C@@H]2O[C@H](C)C[C@H](N(C)C)[C@H]2O)[C@](C)(OCC#Cc2ccc(-c3nccs3)s2)C[C@@H](C)C(=O)[C@H](C)[C@H]2NC(=O)O[C@@]21C [Example 28]	> 100 µg/mL	0.05 µg/mL (≈ 0.0623 µM)	12.5 µg/mL (≈ 15.6 µM)	25 µg/mL (≈ 31.2 µM)	0.1 µg/mL (≈ 0.125 µM)	2 µg/mL (≈ 2.49 µM)	0.1 µg/mL (≈ 0.125 µM)	0.01 µg/mL (≈ 0.0125 µM)	0.2 µg/mL (≈ 0.249 µM)	0.05 µg/mL (≈ 0.0623 µM)	> 100 µg/mL	> 100 µg/mL	0.05 µg/mL (≈ 0.0623 µM)	0.05 µg/mL (≈ 0.0623 µM)	0.05 µg/mL (≈ 0.0623 µM)	0.05 µg/mL (≈ 0.0623 µM)	0.1 µg/mL (≈ 0.125 µM)	0.05 µg/mL (≈ 0.0623 µM)	0.25 µg/mL (≈ 0.312 µM)	1 µg/mL (≈ 1.25 µM)	MIC [17]: 0.03 µg/mL (≈ 0.0374 µM); MIC [18]: 0.03 µg/mL (≈ 0.0374 µM); MIC [19]: 0.02 µg/mL (≈ 0.0249 µM); MIC [20]: ≤ 0.005 µg/mL; MIC [21]: 12.5 µg/mL (≈ 15.6 µM); MIC [22]: ≤ 0.005 µg/mL; MIC [23]: 0.1 µg/mL (≈ 0.125 µM)
CC[C@H]1OC(=O)[C@H](C)C(=O)[C@H](C)[C@@H](O[C@@H]2O[C@H](C)C[C@H](N(C)C)[C@H]2O)[C@](C)(OC/C=C/c2ccc(-c3cncnc3)s2)C[C@@H](C)C(=O)[C@H](C)[C@H]2NC(=O)O[C@@]21C [Example 70]	> 100 µg/mL	0.05 µg/mL (≈ 0.0626 µM)	100 µg/mL (≈ 125 µM)	100 µg/mL (≈ 125 µM)	0.78 µg/mL (≈ 0.976 µM)	4 µg/mL (≈ 5.01 µM)	0.1 µg/mL (≈ 0.125 µM)	0.02 µg/mL (≈ 0.025 µM)	0.39 µg/mL (≈ 0.488 µM)	0.02 µg/mL (≈ 0.025 µM)	> 100 µg/mL	> 100 µg/mL	0.2 µg/mL (≈ 0.25 µM)	0.1 µg/mL (≈ 0.125 µM)	0.1 µg/mL (≈ 0.125 µM)	0.1 µg/mL (≈ 0.125 µM)	0.2 µg/mL (≈ 0.25 µM)	0.1 µg/mL (≈ 0.125 µM)	0.25 µg/mL (≈ 0.313 µM)	4 µg/mL (≈ 5.01 µM)	MIC [17]: 0.015 µg/mL (≈ 0.0188 µM); MIC [18]: 0.015 µg/mL (≈ 0.0188 µM); MIC [19]: 0.02 µg/mL (≈ 0.025 µM); MIC [20]: 0.01 µg/mL (≈ 0.0125 µM); MIC [21]: 12.5 µg/mL (≈ 15.6 µM); MIC [22]: 0.01 µg/mL (≈ 0.0125 µM); MIC [23]: 0.1 µg/mL (≈ 0.125 µM)
